Reference: BindingDB's records for doi:10.1107/s0907444999007350 (Berlex, 1999)
pKi: −log10 of the molar value.

target: Coagulation factor X (Homo sapiens, UniProt P00742); test: Enzyme Inhibition Assay; settings: pH 7.5; 22 °C
Protocol: The enzyme activities were determined kinetically as the initial rate of cleavage of a peptide p-nitroanilide. Km for enzyme and substrate was determined using four substrate dilutions. Enzyme was incubated with test compounds for 10 min; the reaction was then started by the addition of the substrate. […] IC50 values for inhibitors were determined from the dose response curve by fitting the data to the Hill equation. Ki,app values were calculated as the IC50/2, with the IC50 value determined at a substrate concentration equal to Km

Chain of Coagulation factor X (P00742 41-179 limits assumed): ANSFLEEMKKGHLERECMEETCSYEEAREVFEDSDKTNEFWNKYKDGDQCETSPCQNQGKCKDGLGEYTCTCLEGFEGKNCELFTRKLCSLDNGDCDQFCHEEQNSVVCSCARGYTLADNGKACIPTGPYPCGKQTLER
Chain of Coagulation factor X (P00742 235-488 limits assumed): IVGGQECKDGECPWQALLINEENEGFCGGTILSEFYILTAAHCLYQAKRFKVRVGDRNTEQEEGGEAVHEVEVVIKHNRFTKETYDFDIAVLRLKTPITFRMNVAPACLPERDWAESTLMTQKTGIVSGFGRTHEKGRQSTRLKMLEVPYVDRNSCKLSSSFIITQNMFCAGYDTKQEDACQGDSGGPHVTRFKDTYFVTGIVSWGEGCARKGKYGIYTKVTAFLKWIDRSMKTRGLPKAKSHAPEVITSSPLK

| Compound | pKi |
| --- | --- |
| Cc1c(F)c(Oc2cccc(C(=N)N)c2)nc(Oc2cccc(C(=N)N)c2)c1F | 7.85 |
| CN1CCN=C1c1cccc(Oc2nc(Oc3cc(C(=N)N)ccc3O)c(F)c(N3CCCC(C(=O)O)C3)c2F)c1 (stereo not drawn) [1-[2-(5-carbamimidoyl-2-hydroxyphenoxy)-3,5-difluoro-6-[3-(1-methyl-4,5-dihydro-1H-imidazol-2-yl)phenoxy]pyridin-4-yl]piperidine-3-carboxylic acid] | 9.96 |
| [H]/N=C(/C)N1CCC(Oc2ccc3c4ccccc4n(Cc4ccc5ccc(C(=N)N)cc5c4)c3c2)CC1 [ZK-806450] | 8.80 |
